According to patent publication US20230332103A1, “Methods and Compositions for Generating Human Forebrain Neural Progenitor Cells and for Maturation Thereof to Parvalbumin+ Interneurons” (Trailhead Biosystems Inc., priority 2021, published 2023):

Legend:
[1] = system: stage 4 neural stem cells; assay: HD-DoE 8-factor experiment for stage 5 recipe (Forskolin, Arachidonic acid, VPA, BDNF, BT13, O-LPA, GW7646, Sodium pyruvate), optimized for PVALB; format: cell-based, human; settings: for impact on expression of PVALB: dynamic profile analysis, FIG. 26
Method: To further guide the differentiation of forebrain-committed neural stem cells to PVALB interneuron cells, an additional HD-DoE experiment was performed for 3 days on cells that were treated with stage 1 to stage 4 media for total of 12 days prior to start of the experiment. This experiment included 8 effectors, Forskolin, Arachidonic acid, VPA, BDNF, BT13, O-LPA, GW7646, and Sodium pyruvate. In this model, we focused on maximum expression of PVALB gene expressed in PVALB (+) interneurons (Nahar et al. (2021) Front. Psych. 12:679960). When the model was optimized for maximum expression of PVALB, Forskolin, GW7646, Sodium Pyruvate had the highest factor contributions, 3.14, 27.2, and 17.1 respectively (FIG. 25).
So, it was excluded in the recipe.

[2] = system: stage 4 neural stem cells; assay: factor criticality analysis of stage 5 recipe; format: cell-based, human; settings: FIG. 28-30
Method: To assess the impact of elimination of each validated factor, we again used dynamic profile analysis and compared the expression level of genes of interest in the absence of each finalized factor while others are present.
In the stage 5 recipe, each of seven finalized factors were removed while other factors were kept present and expression levels of PVALB and SST were assessed compared to the presence of all seven factors. […] 2-phospho-L-ascorbic acid, BDNF, IGF-1 were included in the stage 5 recipe (FIG. 28). […] Others were also found to increase the expression of somatostatin that was SST interneuron marker. So, they are excluded from the recipe and N2 was included in the stage 5 recipe (FIG. 29). […] Sodium pyruvate was included in the stage 5 recipe (FIG. 30).

Question: Which “impact on expression of PVALB” value [1] does the source give for `CC(=O)C(=O)[O-].[Na+]` [Sodium pyruvate] here?
Answer: significant effect

Question: And the “impact on expression of PVALB” value ([1]; listed as sodium pyruvate)?
Answer: positive impact

Question: What about the “factor contribution on expression of PVALB” value ([1]; positive, model optimized for maximum expression of PVALB, FIG. 25) of the same compound?
Answer: 17.1

Question: And the “contribution to expression of PVALB (Parvalbumin)” value [2]?
Answer: contribute to PVALB expression
